Experimental findings from US12419873B2, “Use of JAK inhibitors in preparation of drugs for treating JAK kinase-related diseases” (ZHUHAI UNITED LABORATORIES CO., LTD., priority 2020, dated 2025) are described below.

One assay has as its target JAK2 (Homo sapiens (Human), UniProt O60674). Description: In vitro activity test of JAK2 kinase. Conditions: read-out: JAK2 (IC50).
A further assay has as its target TYK2 (Homo sapiens (Human), UniProt P29597). Description: In vitro activity test of TYK2 kinase. In kind it is biochemical. As for the experimental part: (§1) Recombinant human JAK1, JAK2, JAK3, TyK2 protease, main instruments and reagents were provided by Eurofins in the UK
(§2) All compounds were prepared into a 100% DMSO solution and reached 50 times the final determined concentration. The test compound was diluted by 3 times the concentration gradient, and the final concentration was 10 μM to 0.001 μM, 9 concentrations in total, and the content of DMSO in the detection reaction was 2%. The working stock solution of the compound was added to a determination hole as the first component of the reaction, and then the remaining components were added according to the detailed scheme determination below.
(§3) Mg/ATP mixture was added to start the reaction. After incubation at room temperature for 40 minutes, 0.5% phosphoric acid was added to stop the reaction.

The next assay has as its target JAK1 (Homo sapiens (Human), UniProt P23458). Description: In vitro activity test of JAK1 kinase. In kind it is biochemical. The method, then: as §1, §2, §3
The target of the next assay is JAK3 (Homo sapiens (Human), UniProt P52333). Description: In vitro activity test of JAK3 kinase. The format is biochemical. The method, then: as §1, §2, §3
Sequence of JAK3 (P52333 whole entry): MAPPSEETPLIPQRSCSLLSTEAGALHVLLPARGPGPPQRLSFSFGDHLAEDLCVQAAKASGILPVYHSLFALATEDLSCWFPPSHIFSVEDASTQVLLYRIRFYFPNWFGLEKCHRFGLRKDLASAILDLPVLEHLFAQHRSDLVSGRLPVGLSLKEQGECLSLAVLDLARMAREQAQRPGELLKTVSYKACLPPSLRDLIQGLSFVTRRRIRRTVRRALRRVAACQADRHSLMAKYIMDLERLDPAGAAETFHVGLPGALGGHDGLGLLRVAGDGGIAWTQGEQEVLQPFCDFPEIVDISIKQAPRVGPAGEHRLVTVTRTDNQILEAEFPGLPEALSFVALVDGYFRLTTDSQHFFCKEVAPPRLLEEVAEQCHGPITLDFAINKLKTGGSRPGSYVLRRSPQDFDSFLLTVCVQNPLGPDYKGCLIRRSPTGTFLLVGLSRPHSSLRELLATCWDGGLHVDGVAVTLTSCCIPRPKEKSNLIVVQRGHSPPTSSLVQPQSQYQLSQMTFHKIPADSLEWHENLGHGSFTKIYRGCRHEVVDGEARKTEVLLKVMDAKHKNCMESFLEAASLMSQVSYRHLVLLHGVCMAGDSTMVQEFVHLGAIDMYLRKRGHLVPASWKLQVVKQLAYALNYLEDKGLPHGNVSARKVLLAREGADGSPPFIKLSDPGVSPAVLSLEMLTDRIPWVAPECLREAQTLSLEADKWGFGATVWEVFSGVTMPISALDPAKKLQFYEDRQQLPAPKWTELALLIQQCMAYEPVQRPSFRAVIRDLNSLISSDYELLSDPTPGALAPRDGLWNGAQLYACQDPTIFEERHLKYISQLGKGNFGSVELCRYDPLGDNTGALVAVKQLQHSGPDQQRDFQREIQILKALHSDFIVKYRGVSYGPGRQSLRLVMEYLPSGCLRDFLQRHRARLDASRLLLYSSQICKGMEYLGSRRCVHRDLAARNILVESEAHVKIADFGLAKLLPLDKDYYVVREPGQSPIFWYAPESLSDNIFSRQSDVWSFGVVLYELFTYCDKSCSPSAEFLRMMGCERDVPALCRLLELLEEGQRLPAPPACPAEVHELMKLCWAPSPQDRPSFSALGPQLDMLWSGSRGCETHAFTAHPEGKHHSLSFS

Each structure is given as a SMILES string. Some results are limits rather than exact numbers.

Sequence of TYK2 (P29597 whole entry): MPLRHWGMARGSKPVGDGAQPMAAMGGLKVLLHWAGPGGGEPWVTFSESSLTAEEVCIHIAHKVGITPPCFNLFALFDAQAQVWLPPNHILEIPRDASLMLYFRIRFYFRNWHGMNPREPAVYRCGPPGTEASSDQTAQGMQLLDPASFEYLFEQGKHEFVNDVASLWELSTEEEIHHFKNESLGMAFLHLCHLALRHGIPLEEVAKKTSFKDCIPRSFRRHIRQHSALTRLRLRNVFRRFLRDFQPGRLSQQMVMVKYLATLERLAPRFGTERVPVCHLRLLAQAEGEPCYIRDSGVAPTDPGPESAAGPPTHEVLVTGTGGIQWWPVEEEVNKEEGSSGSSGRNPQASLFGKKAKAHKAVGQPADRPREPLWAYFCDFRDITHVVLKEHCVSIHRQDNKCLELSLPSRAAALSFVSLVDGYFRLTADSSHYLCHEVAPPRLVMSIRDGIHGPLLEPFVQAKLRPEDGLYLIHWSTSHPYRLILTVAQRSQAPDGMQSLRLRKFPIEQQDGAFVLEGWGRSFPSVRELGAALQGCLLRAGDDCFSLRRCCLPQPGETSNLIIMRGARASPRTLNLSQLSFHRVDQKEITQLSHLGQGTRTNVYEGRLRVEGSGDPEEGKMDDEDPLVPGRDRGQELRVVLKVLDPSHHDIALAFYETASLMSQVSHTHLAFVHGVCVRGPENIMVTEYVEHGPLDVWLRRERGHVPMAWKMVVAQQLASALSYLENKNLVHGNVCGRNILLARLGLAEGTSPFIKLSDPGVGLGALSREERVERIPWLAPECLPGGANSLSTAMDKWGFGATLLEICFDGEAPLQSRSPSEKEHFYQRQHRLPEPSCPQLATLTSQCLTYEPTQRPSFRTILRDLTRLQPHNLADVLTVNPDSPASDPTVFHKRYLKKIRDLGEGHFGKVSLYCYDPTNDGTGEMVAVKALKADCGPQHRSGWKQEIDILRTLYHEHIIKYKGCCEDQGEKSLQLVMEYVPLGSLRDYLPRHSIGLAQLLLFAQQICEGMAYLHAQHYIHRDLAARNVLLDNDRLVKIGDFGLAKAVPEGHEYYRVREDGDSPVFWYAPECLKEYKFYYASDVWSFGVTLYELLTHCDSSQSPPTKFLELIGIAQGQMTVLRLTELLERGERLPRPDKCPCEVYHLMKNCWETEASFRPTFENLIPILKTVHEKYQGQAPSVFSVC
Sequence of JAK1 (P23458 whole entry): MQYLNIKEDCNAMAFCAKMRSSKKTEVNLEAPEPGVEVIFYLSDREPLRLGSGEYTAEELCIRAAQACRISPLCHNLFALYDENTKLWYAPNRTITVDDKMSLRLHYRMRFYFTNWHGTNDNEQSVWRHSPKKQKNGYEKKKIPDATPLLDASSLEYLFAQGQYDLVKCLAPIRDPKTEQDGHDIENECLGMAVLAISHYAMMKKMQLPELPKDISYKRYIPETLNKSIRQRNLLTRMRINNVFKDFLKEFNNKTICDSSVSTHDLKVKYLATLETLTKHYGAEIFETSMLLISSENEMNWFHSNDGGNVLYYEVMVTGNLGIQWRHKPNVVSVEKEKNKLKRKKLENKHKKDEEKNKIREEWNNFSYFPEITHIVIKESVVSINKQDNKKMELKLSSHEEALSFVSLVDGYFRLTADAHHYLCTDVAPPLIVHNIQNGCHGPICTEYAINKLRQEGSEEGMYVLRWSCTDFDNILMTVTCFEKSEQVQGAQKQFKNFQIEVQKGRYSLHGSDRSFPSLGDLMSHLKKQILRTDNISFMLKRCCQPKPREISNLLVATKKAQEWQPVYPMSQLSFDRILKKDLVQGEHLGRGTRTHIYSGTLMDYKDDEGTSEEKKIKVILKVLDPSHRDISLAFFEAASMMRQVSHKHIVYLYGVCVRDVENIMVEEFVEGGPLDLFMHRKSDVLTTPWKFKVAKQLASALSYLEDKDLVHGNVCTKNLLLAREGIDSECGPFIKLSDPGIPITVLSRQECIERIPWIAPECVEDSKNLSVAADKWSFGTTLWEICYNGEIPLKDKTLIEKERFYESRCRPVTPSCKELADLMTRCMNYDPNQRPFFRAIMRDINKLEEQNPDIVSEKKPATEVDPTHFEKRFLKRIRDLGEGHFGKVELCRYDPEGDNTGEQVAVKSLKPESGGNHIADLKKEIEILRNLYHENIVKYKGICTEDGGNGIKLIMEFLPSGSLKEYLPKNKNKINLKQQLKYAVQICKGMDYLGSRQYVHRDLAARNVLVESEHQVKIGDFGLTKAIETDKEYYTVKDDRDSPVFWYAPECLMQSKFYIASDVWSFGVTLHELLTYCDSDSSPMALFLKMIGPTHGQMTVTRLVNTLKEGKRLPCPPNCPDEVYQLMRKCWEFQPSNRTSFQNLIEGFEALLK
Sequence of JAK2 (O60674 whole entry): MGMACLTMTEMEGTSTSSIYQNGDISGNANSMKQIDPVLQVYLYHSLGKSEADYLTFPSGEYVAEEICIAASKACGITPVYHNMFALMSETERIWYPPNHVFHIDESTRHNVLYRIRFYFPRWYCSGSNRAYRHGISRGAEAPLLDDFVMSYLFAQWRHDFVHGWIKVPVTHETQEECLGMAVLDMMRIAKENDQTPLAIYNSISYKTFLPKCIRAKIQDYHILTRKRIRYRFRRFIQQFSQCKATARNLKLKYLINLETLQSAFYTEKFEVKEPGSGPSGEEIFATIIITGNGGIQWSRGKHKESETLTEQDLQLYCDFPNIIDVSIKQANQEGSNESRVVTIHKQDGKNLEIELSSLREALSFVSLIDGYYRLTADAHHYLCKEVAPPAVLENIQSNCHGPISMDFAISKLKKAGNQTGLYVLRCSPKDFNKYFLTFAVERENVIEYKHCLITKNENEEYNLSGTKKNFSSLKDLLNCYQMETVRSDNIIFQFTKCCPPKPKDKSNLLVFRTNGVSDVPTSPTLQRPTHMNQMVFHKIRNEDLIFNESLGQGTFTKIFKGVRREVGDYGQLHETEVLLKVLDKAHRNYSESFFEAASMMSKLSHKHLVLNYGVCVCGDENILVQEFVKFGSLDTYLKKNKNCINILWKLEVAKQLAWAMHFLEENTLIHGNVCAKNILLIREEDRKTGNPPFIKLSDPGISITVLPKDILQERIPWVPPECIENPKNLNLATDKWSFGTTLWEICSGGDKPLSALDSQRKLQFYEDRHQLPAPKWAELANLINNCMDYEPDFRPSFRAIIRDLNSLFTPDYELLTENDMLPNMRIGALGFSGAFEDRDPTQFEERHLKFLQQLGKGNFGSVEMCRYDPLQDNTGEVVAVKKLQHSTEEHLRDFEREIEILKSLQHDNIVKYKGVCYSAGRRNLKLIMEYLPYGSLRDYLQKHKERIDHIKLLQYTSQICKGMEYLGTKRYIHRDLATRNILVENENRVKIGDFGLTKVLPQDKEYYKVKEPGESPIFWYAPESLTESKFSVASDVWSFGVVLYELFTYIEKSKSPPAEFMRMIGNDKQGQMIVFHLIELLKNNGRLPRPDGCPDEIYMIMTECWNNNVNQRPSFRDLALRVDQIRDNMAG

For the molecule `O=C(Nc1nc2cccc([C@H]3CCC4(CCN(C(=O)[C@@H]5CC5(F)F)CC4)C3)n2n1)C1CC1` (single isomer, unassigned) [Compound 6-7], the IC50 at JAK2 was found to be 998 nM; against TYK2, 829 nM; against JAK1, 63 nM; against JAK3, 9390 nM.
For `N#CCN1CC2(CCC(c3cccc4nc(NC(=O)[C@H]5CC5(F)F)nn34)CC2)C1` [Compound 8-9], in that order: 3670 nM, 1330 nM, 52 nM and above 10000 nM.
In the same order, the values of `O=C(Nc1nc2cccc(C3CCC4(CC3)CCN(C(=O)C3CC3(F)F)C4)n2n1)C1CC1` (single isomer, unassigned) [Compound 5-7] are 324 nM, 67 nM, 31 nM and 5760 nM.
For the molecule `N#CCN1CC2(CCC(c3cccc4nc(NC(=O)[C@@H]5CC5(F)F)nn34)CC2)C1` [Compound 9-6], the IC50 is 1170 nM at JAK2, 1390 nM at TYK2, 432 nM against JAK1 and above 10000 nM on JAK3.
In the same order, the values of `O=C(Nc1nc2cccc([C@@H]3CCC4(CCN(C(=O)[C@@H]5CC5(F)F)CC4)C3)n2n1)C1CC1` (single isomer, unassigned) [Compound 6-8] are 1920 nM, 570 nM, 381 nM and above 10000 nM.
For `O=C(Nc1nc2cccc(C3CCC4(CC3)CCN(C(=O)C3CC3(F)F)C4)n2n1)C1CC1` (single isomer, unassigned) [Compound 5-8], in that order: 789 nM, 692 nM, 75 nM and 7350 nM.
In the case of `O=C(Nc1nc2cccc(C3CCC4(CC3)CN(C(=O)[C@H]3CC3(F)F)C4)n2n1)[C@H]1CC1(F)F` [Compound 8-6], the IC50 at JAK2 stood at 110 nM; on TYK2, 127 nM; at JAK1, 14 nM; against JAK3 it was 7640 nM.
For `N#CCC(=O)N1CC2(CCC(F)(c3cccc4nc(NC(=O)C5CC5)nn34)CC2)C1` [Compound 4-6], in that order: 2010 nM, 307 nM, 170 nM and 8450 nM.
Regarding `O=C(Nc1nc2cccc([C@H]3CCC4(C3)CN(C(=O)[C@@H]3CC3(F)F)C4)n2n1)C1CC1` (single isomer, unassigned) [Compound 7-7], the IC50 against TYK2 was 830 nM; against JAK1, 63 nM; against JAK3 it was above 10000 nM.
In the same order, the values of `N#CCCN1CC2(CCC(c3cccc4nc(NC(=O)C5CC5)nn34)CC2)C1` [Compound 1-17] are 371 nM, 65 nM and above 10000 nM.
